Test results taken from PubChem BioAssay (NCI).
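48-hour exposure; five concentrations; linearly interpolated endpoints. TGI: total growth inhibition.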

How the values were obtained:
Assay in all cases: inhibition of tumour cell growth, NCI panel, 48 h
A498 renal = tested on: A498 renal
A549 NSCLC = tested on: A549 NSCLC
COLO 205 colon = tested on: COLO 205 colon
HCT-15 colon = tested on: HCT-15 colon
LOX IMVI melanoma = tested on: LOX IMVI melanoma
MALME-3M melanoma = tested on: MALME-3M melanoma
NCI-H226 lung = tested on: NCI-H226 lung
NCI-H460 lung = tested on: NCI-H460 lung
NCI-H522 lung = tested on: NCI-H522 lung
SNB-75 CNS = tested on: SNB-75 CNS
UO-31 renal = tested on: UO-31 renal
BT-549 breast = tested on: BT-549 breast
MCF7 breast = tested on: MCF7 breast

## C=C[C@]1(C)CCC2=C(CCC3C2(C)CCC[C@@]3(C)COC(C)=O)C1 (stereo not given in full)
A498 renal
  TGI: 54.3 µM
A549 NSCLC
  TGI: 52.5 µM
COLO 205 colon
  TGI: 30 µM
HCT-15 colon
  TGI: 30.8 µM
LOX IMVI melanoma
  TGI: 33.8 µM
MALME-3M melanoma
  TGI: 62.4 µM
NCI-H226 lung
  TGI: 34.6 µM
NCI-H460 lung
  TGI: 32.2 µM
NCI-H522 lung
  TGI: 28.7 µM
SNB-75 CNS
  TGI: 36.7 µM
UO-31 renal
  TGI: 33.4 µM

## CSc1ccc(/C=C2\N=C(c3ccccc3)N(c3nc4cc(C)c(C)cc4s3)C2=O)cc1
A549 NSCLC
  TGI: 89.7 µM
BT-549 breast
  TGI: 98.1 µM
COLO 205 colon
  TGI: > 100 µM
HCT-15 colon
  TGI: > 100 µM
LOX IMVI melanoma
  TGI: 44.7 µM
MCF7 breast
  TGI: 37.2 µM
NCI-H460 lung
  TGI: > 100 µM
SNB-75 CNS
  TGI: 55.2 µM
UO-31 renal
  TGI: > 100 µM

## COc1cccc(N(CN2C(=O)CCC2C(=O)O)C(C)=O)c1 (stereo not given)
A498 renal
  TGI: > 100 µM
A549 NSCLC
  TGI: > 100 µM
COLO 205 colon
  TGI: > 100 µM
HCT-15 colon
  TGI: > 100 µM
LOX IMVI melanoma
  TGI: > 100 µM
MALME-3M melanoma
  TGI: > 100 µM
MCF7 breast
  TGI: > 100 µM
NCI-H226 lung
  TGI: > 100 µM
NCI-H460 lung
  TGI: > 100 µM
NCI-H522 lung
  TGI: > 100 µM
SNB-75 CNS
  TGI: > 100 µM
UO-31 renal
  TGI: > 100 µM

## Nc1cc(=O)n(-c2ccccc2)c(=S)n1-c1ccccc1
A498 renal
  TGI: > 100 µM
A549 NSCLC
  TGI: > 100 µM
COLO 205 colon
  TGI: > 100 µM
HCT-15 colon
  TGI: > 100 µM
LOX IMVI melanoma
  TGI: > 100 µM
MALME-3M melanoma
  TGI: > 100 µM
NCI-H226 lung
  TGI: > 100 µM
NCI-H460 lung
  TGI: > 100 µM
NCI-H522 lung
  TGI: > 100 µM
SNB-75 CNS
  TGI: > 100 µM
UO-31 renal
  TGI: > 100 µM

## O=C(C/C(=N/O)c1cc(-c2ccccc2)no1)c1ccccc1
A498 renal
  TGI: > 100 µM
A549 NSCLC
  TGI: > 100 µM
BT-549 breast
  TGI: 75.1 µM
COLO 205 colon
  TGI: > 100 µM
HCT-15 colon
  TGI: > 100 µM
LOX IMVI melanoma
  TGI: > 100 µM
MALME-3M melanoma
  TGI: > 100 µM
MCF7 breast
  TGI: > 100 µM
NCI-H226 lung
  TGI: 56.7 µM
NCI-H460 lung
  TGI: > 100 µM
NCI-H522 lung
  TGI: 37.2 µM
UO-31 renal
  TGI: > 100 µM

## CCOC1Oc2ccccc2-c2nc(SC)ncc21 (stereo not given)
A498 renal
  TGI: > 100 µM
A549 NSCLC
  TGI: > 100 µM
BT-549 breast
  TGI: > 100 µM
COLO 205 colon
  TGI: > 100 µM
HCT-15 colon
  TGI: > 100 µM
LOX IMVI melanoma
  TGI: > 100 µM
MCF7 breast
  TGI: > 100 µM
NCI-H226 lung
  TGI: > 100 µM
NCI-H460 lung
  TGI: > 100 µM
NCI-H522 lung
  TGI: > 100 µM
SNB-75 CNS
  TGI: > 100 µM
UO-31 renal
  TGI: > 100 µM

## COc1ccc2cc(-c3nc(N)nc(N4N=C(C)CC4(C)C)n3)c(=N)oc2c1
A498 renal
  TGI: 82.1 µM
A549 NSCLC
  TGI: > 100 µM
BT-549 breast
  TGI: 48.1 µM
COLO 205 colon
  TGI: 30.8 µM
HCT-15 colon
  TGI: 32 µM
MALME-3M melanoma
  TGI: 32.7 µM
MCF7 breast
  TGI: 44.2 µM
NCI-H226 lung
  TGI: 40.6 µM
NCI-H460 lung
  TGI: 35.6 µM
NCI-H522 lung
  TGI: 27.8 µM
UO-31 renal
  TGI: 55.1 µM

## O=C(CSc1nc2ccc(I)cc2c(=O)n1Cc1ccccc1)NNC(=O)c1ccccc1
A498 renal
  TGI: 25.7 µM
A549 NSCLC
  TGI: 32.6 µM
BT-549 breast
  TGI: 21.3 µM
COLO 205 colon
  TGI: > 100 µM
HCT-15 colon
  TGI: > 100 µM
LOX IMVI melanoma
  TGI: > 100 µM
MCF7 breast
  TGI: 23.2 µM
NCI-H226 lung
  TGI: 15.5 µM
NCI-H460 lung
  TGI: > 100 µM
NCI-H522 lung
  TGI: 25.8 µM
SNB-75 CNS
  TGI: 10.3 µM
UO-31 renal
  TGI: 2.73 µM

## Cn1c(=O)sc2cc(C(=S)N3CCC(Cc4ccccc4)CC3)ccc21
A498 renal
  TGI: > 100 µM
BT-549 breast
  TGI: > 100 µM
COLO 205 colon
  TGI: > 100 µM
HCT-15 colon
  TGI: > 100 µM
LOX IMVI melanoma
  TGI: > 100 µM
MCF7 breast
  TGI: > 100 µM
NCI-H226 lung
  TGI: > 100 µM
NCI-H460 lung
  TGI: > 100 µM

## COC(=O)C1(C(=O)OC)N=C(C)OC1/C=C/c1ccccc1 (stereo not given)
A498 renal
  TGI: > 100 µM
A549 NSCLC
  TGI: > 100 µM
BT-549 breast
  TGI: > 100 µM
COLO 205 colon
  TGI: > 100 µM
HCT-15 colon
  TGI: > 100 µM
LOX IMVI melanoma
  TGI: > 100 µM
MCF7 breast
  TGI: > 100 µM
NCI-H226 lung
  TGI: > 100 µM
NCI-H460 lung
  TGI: > 100 µM
SNB-75 CNS
  TGI: > 100 µM
UO-31 renal
  TGI: > 100 µM

## COC(=O)[C@H](Cc1ccc(OC(C)(C)C)cc1)N[C@H](C)C(=O)N[C@@H](Cc1ccccc1)C(=O)OCc1ccccc1
A498 renal
  TGI: > 100 µM
A549 NSCLC
  TGI: > 100 µM
COLO 205 colon
  TGI: > 100 µM
HCT-15 colon
  TGI: > 100 µM
LOX IMVI melanoma
  TGI: > 100 µM
MALME-3M melanoma
  TGI: > 100 µM
MCF7 breast
  TGI: 81.5 µM
NCI-H226 lung
  TGI: > 100 µM
NCI-H460 lung
  TGI: > 100 µM
NCI-H522 lung
  TGI: > 100 µM
SNB-75 CNS
  TGI: > 100 µM
UO-31 renal
  TGI: 43.7 µM

## CN1CCC2(CC1)C(=NC1CCCCC1)NC(=S)N2c1ccccc1
A498 renal
  TGI: > 100 µM
A549 NSCLC
  TGI: > 100 µM
COLO 205 colon
  TGI: > 100 µM
HCT-15 colon
  TGI: > 100 µM
LOX IMVI melanoma
  TGI: > 100 µM
MALME-3M melanoma
  TGI: > 100 µM
MCF7 breast
  TGI: > 100 µM
NCI-H226 lung
  TGI: > 100 µM
NCI-H460 lung
  TGI: > 100 µM
SNB-75 CNS
  TGI: > 100 µM
UO-31 renal
  TGI: > 100 µM

## O=C(O)CCCc1ccc2ccccc2c1
A498 renal
  TGI: > 100 µM
A549 NSCLC
  TGI: > 100 µM
BT-549 breast
  TGI: > 100 µM
COLO 205 colon
  TGI: > 100 µM
HCT-15 colon
  TGI: > 100 µM
LOX IMVI melanoma
  TGI: > 100 µM
MCF7 breast
  TGI: > 100 µM
NCI-H460 lung
  TGI: > 100 µM
NCI-H522 lung
  TGI: > 100 µM
UO-31 renal
  TGI: > 100 µM

## O=C1CSC(c2c[nH]c3ccccc23)N1c1ccccc1[N+](=O)[O-] (stereo not given)
A549 NSCLC
  TGI: > 100 µM
BT-549 breast
  TGI: > 100 µM
COLO 205 colon
  TGI: > 100 µM
HCT-15 colon
  TGI: > 100 µM
LOX IMVI melanoma
  TGI: > 100 µM
MCF7 breast
  TGI: > 100 µM
NCI-H460 lung
  TGI: > 100 µM
NCI-H522 lung
  TGI: > 100 µM
UO-31 renal
  TGI: > 100 µM

## C1CC[C@H]2SSC3CCCC[C@H]3SSC2C1 (stereo not given in full)
A549 NSCLC
  TGI: > 100 µM
BT-549 breast
  TGI: > 100 µM
COLO 205 colon
  TGI: > 100 µM
HCT-15 colon
  TGI: > 100 µM
LOX IMVI melanoma
  TGI: > 100 µM
MCF7 breast
  TGI: > 100 µM
NCI-H460 lung
  TGI: > 100 µM
NCI-H522 lung
  TGI: > 100 µM
SNB-75 CNS
  TGI: > 100 µM
UO-31 renal
  TGI: > 100 µM

## COc1cc(C2C(Cl)C(=O)N2NC(=O)c2ccc(N)cc2)cc(Br)c1O (stereo not given)
A498 renal
  TGI: 59 µM
A549 NSCLC
  TGI: 42.8 µM
COLO 205 colon
  TGI: 33.4 µM
HCT-15 colon
  TGI: 28.8 µM
LOX IMVI melanoma
  TGI: 11 µM
MALME-3M melanoma
  TGI: 27.5 µM
NCI-H226 lung
  TGI: 46.2 µM
NCI-H460 lung
  TGI: 31.4 µM
NCI-H522 lung
  TGI: 3.4 µM
SNB-75 CNS
  TGI: 33.3 µM
UO-31 renal
  TGI: 35.6 µM

## COC(=O)[C@H](CC(C)C)Nc1c(O)c2c(c(O)c1Cl)C(=O)C=CC2=O
A498 renal
  TGI: > 10 µM
A549 NSCLC
  TGI: > 10 µM
BT-549 breast
  TGI: > 10 µM
COLO 205 colon
  TGI: > 10 µM
HCT-15 colon
  TGI: > 10 µM
LOX IMVI melanoma
  TGI: 5.74 µM
MALME-3M melanoma
  TGI: > 10 µM
NCI-H226 lung
  TGI: > 10 µM
NCI-H460 lung
  TGI: > 10 µM
NCI-H522 lung
  TGI: > 10 µM
SNB-75 CNS
  TGI: > 10 µM

## O=c1cn[nH]c(=S)n1/N=C/c1c[nH]c2ccccc12
A498 renal
  TGI: > 100 µM
A549 NSCLC
  TGI: > 100 µM
BT-549 breast
  TGI: > 100 µM
COLO 205 colon
  TGI: > 100 µM
HCT-15 colon
  TGI: > 100 µM
LOX IMVI melanoma
  TGI: 93.2 µM
MALME-3M melanoma
  TGI: > 100 µM
MCF7 breast
  TGI: > 100 µM
NCI-H460 lung
  TGI: > 100 µM
NCI-H522 lung
  TGI: > 100 µM
UO-31 renal
  TGI: > 100 µM

## CC(=O)OC12c3ccccc3-c3ccccc3C1C1C(=O)OC(=O)C12 (stereo not given)
A498 renal
  TGI: > 10 µM
COLO 205 colon
  TGI: > 10 µM
HCT-15 colon
  TGI: > 10 µM
LOX IMVI melanoma
  TGI: > 10 µM
MALME-3M melanoma
  TGI: > 10 µM
MCF7 breast
  TGI: > 10 µM
NCI-H226 lung
  TGI: > 10 µM
NCI-H460 lung
  TGI: > 10 µM
NCI-H522 lung
  TGI: > 10 µM
SNB-75 CNS
  TGI: > 10 µM
UO-31 renal
  TGI: > 10 µM
